Molecules are shown by their SMILES.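 Method: 48-hour compound exposure of cells in 96-well plates, five concentrations, linear interpolation of endpoints. TGI: concentration producing complete growth inhibition.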

Test systems include NCI-H226 lung; CCRF-CEM leukemia; SNB-75 CNS; OVCAR-8 ovarian; MDA-MB-435; SR leukemia; HT29 colon; KM12 colon; NCI/ADR-RES ovarian; SF-268 CNS.
Holding throughout (assay): DTP human tumour cell line panel, 48 h

As to `O=c1cnn(C2OC(CO)C(O)C2O)c(=S)[nH]1` (stereo not given), the TGI in the experiment with NCI-H226 lung was greater than 100 µM; in the experiment with CCRF-CEM leukemia, greater than 100 µM; in the experiment on SNB-75 CNS, greater than 100 µM; in the experiment on OVCAR-8 ovarian it was greater than 100 µM; in the experiment on MDA-MB-435 it was greater than 100 µM; in the experiment with SR leukemia, 19.2 µM. Further, the TGI in the experiment with HT29 colon, in the experiment on KM12 colon, in the experiment on NCI/ADR-RES ovarian and in the experiment on SF-268 CNS was greater than 100 µM each time.

(Values after PubChem BioAssay (NCI).)
